Assay results published in patent US12216122B2, “Compositions and methods relating to detection, inhibition, and imaging of indoleamine 2,3-dioxygenase 1 (IDO1)” (Regeneron Pharmaceuticals, Inc., priority 2019, dated 2025).
Read-outs that look alike come from different tables or passages of the source. Blank lines part the entries; values can stand above or below the compound they belong to. Numbered stars: 1 amine (or outer) side, 2 acyl side, 3 side chain; on linkers, the order of the positions; unused ones are H or OH. Bridge positions count the residues as written; N and C are the ends. Square brackets hold non-standard residues; d marks the D form. Triazole bridges read from a SMILES are 1,4-linked. Ends that are not written are not given here. Peptide text beside a SMILES is read from it. * marks the point of attachment. ξ: configuration not given here. NH(CH2CH2O)5CH2CO = O=C(COCCOCCOCCOCCOCCN[*:1])[*:2]; Biotinyl(4ξ) = O=C1N[C@H]2CSC(CCCCC(=O)*)[C@H]2N1; X2 = O=C(CCCCCSc1nonc1/C(=N/O)Nc1ccc(F)c(Br)c1)*; X1 = O=C(CSc1nonc1/C(=N/O)Nc1ccc(F)c(Br)c1)*; Trp(1-Me) = Cn1cc(C[C@H](N)C(=O)O)c2ccccc21; PEG8 = NCCOCCOCCOCCOCCOCCOCCOCCOCCC(=O)O; Lys(N3) = [N-]=[N+]=NCCCC[C@H](N)C(=O)O; Phe(4-F) = N[C@@H](Cc1ccc(F)cc1)C(=O)O; PEG6 = NCCOCCOCCOCCOCCOCCOCCC(=O)O; AEEEA = NCCOCCOCCOCC(=O)O; Pra = C#CC[C@H](N)C(=O)O

What was measured:
[1] = target: T1, IDO1 in IFNγ stimulated HeLa cells (Homo sapiens, UniProt P14902); assay: IDO1 inhibition assay in HeLa cells stimulated with IFNγ; format: cell-based; settings: for inhibition at 8 µM: HeLa
T1 construct: endogenous in cells; host or cells: HeLa cells stimulated with IFNγ
T1 sequence (P14902 whole entry): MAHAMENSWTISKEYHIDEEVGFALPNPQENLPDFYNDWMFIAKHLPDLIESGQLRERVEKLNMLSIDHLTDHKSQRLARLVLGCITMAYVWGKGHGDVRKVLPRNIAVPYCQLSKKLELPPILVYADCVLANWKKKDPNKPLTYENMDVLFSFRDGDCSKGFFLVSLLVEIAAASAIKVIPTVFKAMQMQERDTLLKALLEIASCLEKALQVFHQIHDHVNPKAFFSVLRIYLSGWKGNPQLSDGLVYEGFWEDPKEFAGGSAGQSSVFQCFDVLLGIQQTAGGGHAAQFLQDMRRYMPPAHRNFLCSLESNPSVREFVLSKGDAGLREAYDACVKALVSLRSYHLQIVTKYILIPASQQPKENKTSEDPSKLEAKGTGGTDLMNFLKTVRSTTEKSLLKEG
Description: Lead compounds prioritized in the recombinant IDO1 inhibition assay were advanced to a cellular IDO1 inhibition assay.
Protocol: HeLa cells were trypsinized and diluted to a density of 2×10^5 cells/mL in cell culture medium (DMEM+10% Fetal Bovine Serum (FBS)+1% Penicillin/Streptomycin). Sterile L-tryptophan was added to the cells at a final concentration of 300 μM. IFNγ at a final concentration of 100 ng/mL was added to HeLa cells to stimulate IDO1 expression. Unstimulated HeLa cells in the absence of IFNγ were used for background subtraction. HeLa cells with or without IFNγ were plated in 96-well Greiner black assay plates at a density of 22,000 cells/well. […] 8 μL of each compound dilution were then dispensed into the Greiner black 96-well assay plate(s) containing HeLa cells in triplicate, yielding final assay compound concentrations of 8 μM serially diluted to 1.27 nM. The plates were incubated at 37° C. with 5% CO2. After 48 hours, 24 μL of 0.5 M methyl isonipecotate in DMSO were added into each well and the plates were sealed and incubated at 37° C. with 5% CO2 overnight. The resulting fluorescence was measured in a BioTek Synergy H1 plate reader with a 400 nm excitation filter and a 510 nm emission filter. The fluorescence intensity of each well was corrected for the background observed in wells with non-IFNγ-treated cells and was expressed as a fraction of the intensity observed in wells of IFNγ-treated cells with vehicle only.

[2] = target: T2, recombinant human IDO1 (Homo sapiens, UniProt P14902); assay: IDO1 Fluorogenic Inhibitor Screening Assay (enzyme inhibition); format: biochemical
T2 construct: purchased BPS Biosciences 72037
T2 sequence (P14902 whole entry): as above
Description: The IDO1 Fluorogenic Inhibitor Screening Assay Kit (72037, BPS Biosciences) was used to measure the enzyme inhibition of human IDO1 in the presence of macrocyclic peptide ligands. IDO1 catalyzes the conversion of the essential amino acid L-tryptophan (L-Trp) to N-formylkynurenine (NFK). In the assay, the test inhibitor and enzyme were added to a sample containing L-Trp substrate. After incubation for 1 h at room temperature, 20 μL Fluorescence Solution was added and incubated at 37° C. for 4 h to produce a fluorescent product. Activity was measured by reading sample fluorescence at λ=510 nm following excitation of the reaction product at λ=400 nm.

[3] = system: HeLa cells; assay: Cellular internalization of fluorescent IDO1 ligands (flow cytometry); format: cell-based; settings: Cy5 or FITC label, flow cytometry
Description: Internalization of fluorescently labeled peptides (using Cy5 or FITC) was measured by concentration dependent flow cytometry of unstimulated HeLa cells incubated for one hour with the peptide. […] Internalization was also testing using a cellular inhibition assay, which occurs over 48 hours (rather than the one hour for the flow cytometry assay). Internalized FITC-wyvay (SEQ ID NO:2) at 48 hours was compared to one hour in both unstimulated and stimulated HeLa cells (Table 13). Cell penetration of FITC-wyvay (SEQ ID NO:2) increases with time; more internalized FITC-wyvay (SEQ ID NO:2) can be detected at 48 hours compared to one hour. After one hour, no difference in intracellular staining of FITC-wyvay (SEQ ID NO:2) is observed in unstimulated versus stimulated cells. At 48 hours, there is a slight increase in intracellular FITC-wyvay (SEQ ID NO:2) in stimulated compared to unstimulated cells.
Protocol: HeLa cells were cultured to confluence (˜500,000 cells) in 6-well plates in cell culture medium (DMEM+10% Fetal Bovine Serum (FBS)+1% Penicillin/Streptomycin) or in cell culture medium containing 100 ng/mL IFNγ to stimulate IDO1 expression. The cells were treated with 2 μM or 8 μM macrocyclic IDO1 ligand labeled with either Cy5 or FITC for either 1 hour, 24 hours, or 48 hours as indicated. After treatment, the ligands were aspirated and the cells were washed twice with 1× Phosphate Buffered Saline (PBS). The cells were then harvested by treatment with 0.05% Trypsin-1×EDTA for 5 min at 37° C. Trypsin was quenched by the addition of PBS+2% FBS. The cells in suspension were washed twice in PBS+2% FBS, then resuspended in 500 μL PBS+2% FBS and analyzed for Cy5 or FITC fluorescence using a BD LSR Fortessa X-20 flow cytometer or/and ImageStream X Mark II imaging flow cytometer. Flow Cytometry Standard (fcs) data files were analyzed using FlowJo Software version 10.

[4] = target: T3, His-tagged IDO1 human recombinant protein (Homo sapiens, UniProt P14902); assay: IDO1 ELISA (Affinity Assay): sandwich ELISA, biotinylated ligand immobilized on NEUTRAVIDIN plate; format: binding
T3 construct: purchased BPS Biosciences 71182
T3 sequence (P14902 whole entry): as above
Description: Protocol: A black 96-well NEUTRAVIDIN® Coated High Binding Capacity plate (15510, Pierce) was coated with 2 μM biotinylated macrocyclic peptide ligand in TBS (25 mM Tris-HCl, 150 mM NaCl, pH 7.6) for 2 h at room temperature. The plate was aspirated and then washed with Wash Buffer (0.05% (v/v) TWEEN® 20 in PBS, 6×). His-tagged IDO1 human recombinant protein (71182, BPS Biosciences) was serially diluted in Wash Buffer (from 200 to 0 nM) and incubated in the designated microwells for 1 h at room temperature. Microwells were aspirated and subsequently washed with Wash Buffer (11×). To detect the bound IDO1 protein, Alkaline Phosphatase (AP)-conjugated Anti-6×HIS TAG® antibody [HIS-1] (ab49746, Abcam) was prepared at 1:10,000 dilution and added to the microwells for 1 h at room temperature. The plate was aspirated and washed with Wash Buffer (5×). ATTOPHOS® AP Fluorescent Substrate System (S1000, Promega) was employed to develop the microwells. Using an excitation wavelength of 430 nm, fluorescent emission at 535 nm was recorded by Beckman Coulter DTX880 photometer. Titration curves were fit using a four-parameter regression curve fitting program to determine EC50 values.
For these assays, a dilution series of His-tagged IDO1 human recombinant protein was captured using the macrocyclic peptide ligands immobilized on a NEUTRAVIDIN®-coated plate. […] The sequences of the peptide ligands are listed in Table 1, where D-amino acids are denoted in lowercase, Me-Trp=1-methyl-L-tryptophan, and F-Phe=4-fluoro-L-phenylalanine. Chemical structures are shown below Table 1.
The D-alanine substituted, biotin-PEG3-modified macrocycles were tested in the IDO1 ELISA (Affinity assay). For these assays, a dilution series of His-tagged IDO1 human recombinant protein was captured using macrocycles immobilized on a NEUTRAVIDIN®-coated plate.

[5] = PEG linker length series, wyry, read-out: IC50
[6] = Table 17, read-out: Inhibition Recombinant IDO1 IC50
[7] = read-out: % inhibition at 8 μM, HeLa, Table 17
[8] = Table 18, read-out: Inhibition Recombinant IDO1 IC50
[9] = Table 19, read-out: Inhibition Human rIDO1 IC50
[10] = Table 18, read-out: Inhibition HeLa IC50
[11] = Table 19, read-out: Inhibition HeLa cells IC50
[12] = N-methylated heterobiligands, PEG6 linker, read-out: IC50
[13] = PEG linker length series, wyvay, read-out: IC50
[14] = Table 15, read-out: Inhibition Recombinant IDO1 IC50

IC50 [2, 5]: 0.338 µM
IC50 [2, 6]: 0.338 µM
inhibition at 8 µM [1, 7]: 47.8%
Inhibition HeLa IC50 nM ([1]; Table 17): no curve fit
Compound: N=C(N)NCCC[C@H]1NC(=O)[C@@H](Cc2ccc(O)cc2)NC(=O)[C@@H](Cc2c[nH]c3ccccc23)NC(=O)[C@@H](NC(=O)CCOCCOCCOCCOCCOCCOCCNC(=O)CSc2nonc2/C(=N/O)Nc2ccc(F)c(Br)c2)Cc2cn(nn2)CCCC[C@@H](C(N)=O)NC(=O)[C@@H](Cc2ccc(O)cc2)NC1=O [Inh-PEG6-wyry] ({X1-PEG6}-[Pra][dW][dY][dR][dY][Lys(N3)]-NH2; triazole 1-6)
IDO1 inhibition potency relative to the small molecule (Inh) alone, in words [2]: more than three times as potent as Inh alone

IC50 [2, 12]: 0.044 µM
IC50 [2, 13]: 0.265 µM
IC50 [2, 14]: 0.044 µM
IC50 [2, 9]: 0.265 µM
inhibition at 8 µM ([1]; read-out: % inhibition at 8 μM, HeLa cells, Table 19): 36.1%
inhibition at 8 µM [1, 7]: 36.1%
IC50 ([1]; Table 17, cells print μM, read-out: Inhibition HeLa IC50): 35.7 µM
IC50 [1, 11]: 35.7 µM
Compound: CC(C)[C@H]1NC(=O)[C@@H](Cc2ccc(O)cc2)NC(=O)[C@@H](Cc2c[nH]c3ccccc23)NC(=O)[C@@H](NC(=O)CCOCCOCCOCCOCCOCCOCCNC(=O)CSc2nonc2/C(=N/O)Nc2ccc(F)c(Br)c2)Cc2cn(nn2)CCCC[C@@H](C(N)=O)NC(=O)[C@@H](Cc2ccc(O)cc2)NC(=O)[C@@H](C)NC1=O [Inh-PEG6-wyvay] ({X1-PEG6}-[Pra][dW][dY][dV][dA][dY][Lys(N3)]-NH2; triazole 1-7)

IC50 [2, 12]: 0.928 µM
IC50 [2, 5]: 1.09 µM
IC50 [2, 13]: 1.05 µM
IC50 [2, 14]: 0.928 µM
IC50 [2, 6]: 1.09 µM
IC50 [2, 8]: 1.09 µM
IC50 [2, 9]: 1.05 µM
IC50 ([2]; effect of linker and of protection of the inhibitor, read-out: IC50): 0.616 µM
IC50 ([2]; linker composition series, read-out: IC50): 0.693 µM
inhibition at 8 µM [1, 7]: 99.6%
IC50 ([1]; Table 15, read-out: Inhibition HeLa cells IC50): 0.125 µM
IC50 ([1]; Table 17, read-out: Inhibition HeLa IC50): 0.244 µM
IC50 [1, 10]: 0.406 µM
IC50 [1, 11]: 0.406 µM
EC50 ([4]; binding analysis of VHL-linked Epitope 2 ligand, read-out: EC50): > 1 µM
Compound: O=C(O)CSc1nonc1/C(=N/O)Nc1ccc(F)c(Br)c1 [Inh]

Cellular IDO1 inhibition, in words [1]: good inhibition/cell penetration
Compound: d-Hex-Inh-PEG5-wyvay: heterobiligand with linker modified to increase lipophilicity, PEG5 ([dW][dY][dV][dA][dY]; also: d-Hex-inhibitor via PEG5 linker)

Further lines, the compound ahead of its results:

Compound: d-Hex-Inh-PEG6-wyvay: heterobiligand with linker modified to increase lipophilicity, PEG6 ([dW][dY][dV][dA][dY]; also: d-Hex-inhibitor via PEG6 linker)
Cellular IDO1 inhibition, in words [1]: only showed inhibition at higher concentrations

Compound: CC(C)[C@H]1NC(=O)[C@@H](Cc2ccc(O)cc2)NC(=O)[C@@H](Cc2c[nH]c3ccccc23)NC(=O)[C@@H](NC(=O)COCCOCCOCCOCCOCCNC(=O)CCCCCSc2nonc2/C(=N/O)Nc2ccc(F)c(Br)c2)Cc2cn(nn2)CCCC[C@@H](C(N)=O)NC(=O)[C@@H](Cc2ccc(O)cc2)NC(=O)[C@@H](C)NC1=O [Inh2-PEG5-wyvay] (X2-[NH(CH2CH2O)5CH2CO][Pra][dW][dY][dV][dA][dY][Lys(N3)]-NH2; triazole 2-8)
IC50 [2, 8]: 0.539 µM
IC50 [2, 9]: 0.539 µM
IC50 [1, 10]: 0.221 µM
IC50 [1, 11]: 0.221 µM

Compound: Cy5-nlf(Me-Trp)(F-Phe): Cy5 labeled Epitope 2 macrocycle nlf(Me-Trp)(F-Phe) ([dN][dL][dF][Trp(1-Me)][Phe(4-F)]; triazole (positions not given here); not fully specified (N-terminus, C-terminus, bridges); printed as Cy5-nlf(Me-Trp)(F-Phe); also: Cy5 label, macrocycle, closure not given here)
Internalization of fluorescently labeled peptide, in words [3]: detected by flow cytometry and imaging

Compound: CC(C)[C@H]1NC(=O)[C@@H](Cc2ccc(O)cc2)NC(=O)[C@@H](Cc2c[nH]c3ccccc23)NC(=O)[C@@H](NC(=O)CCOCCOCCOCCOCCOCCOCCOCCOCCNC(=O)CSc2nonc2/C(=N/O)Nc2ccc(F)c(Br)c2)Cc2cn(nn2)CCCC[C@@H](C(N)=O)NC(=O)[C@@H](Cc2ccc(O)cc2)NC(=O)[C@@H](C)NC1=O [Deprotected-Inh-PEG8-wyvay] ({X1-PEG8}-[Pra][dW][dY][dV][dA][dY][Lys(N3)]-NH2; triazole 1-7)
inhibition at 8 µM [1, 7]: 77.3%

Compound: O=C(O)CCCCCSc1nonc1/C(=N/O)Nc1ccc(F)c(Br)c1 [Inh2]
IC50 [2, 8]: 0.343 µM
IC50 [2, 9]: 0.343 µM
IC50 [1, 10]: 0.997 µM
IC50 [1, 11]: 0.997 µM

Compound: d-Hex-Inh-PEG4-wyvay: heterobiligand with linker modified to increase lipophilicity, PEG4 ([dW][dY][dV][dA][dY]; also: d-Hex-inhibitor via PEG4 linker)
Cellular IDO1 inhibition, in words [1]: only showed inhibition at higher concentrations

Compound: C[C@H]1NC(=O)[C@@H](Cc2ccccc2)NC(=O)[C@@H](CCCNC(=N)N)NC(=O)[C@@H](Cc2ccccc2)NC(=O)[C@@H](NC(=O)COCCOCCOCCNC(=O)CCCCC2SC[C@@H]3NC(=O)N[C@H]23)Cc2cn(nn2)CCCC[C@@H](C(N)=O)NC(=O)[C@@H](CO)NC1=O (stereo partly drawn) [frfas, Biotin-PEG3-Cy(frfas)] ({Biotinyl(4ξ)-AEEEA}-[Pra][dF][dR][dF][dA][dS][Lys(N3)]-NH2; triazole 1-7)
Binding to human IDO1 by ELISA, in words [4]: weakest binding to IDO1
